Values joined by “and” are separate entries in the source; they are usually repeats but may differ in a detail not shown here. Identical values can stand only once.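 Where inhibition never reached the appropriate level, the endpoint shown equals the highest concentration tested. Otherwise, values were interpolated linearly from a five-concentration, 48-hour dose response in 96-well plates. GI50 marks 50% less growth.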 Active and inactive are the calls of the source. Rule as the data show it: active = GI50 up to about 1.1 µM and inactive = higher.
Tests used:
Test in all cases: NCI tumour cell line growth inhibition, 48 h
[1] = system: HL-60
[2] = system: EKVX
[3] = system: SN12C
[4] = system: HCT-15
[5] = system: SK-MEL-28
[6] = system: ACHN
[7] = system: IGROV-1
[8] = system: MOLT-4
[9] = system: A549
[10] = system: COLO 205
[11] = system: HCC 2998
[12] = system: UO-31
[13] = system: OVCAR-8
[14] = system: SF-268
[15] = system: SK-OV-3
[16] = system: OVCAR-3

Structure (SMILES) | GI50 [1] | GI50 [2] | GI50 [3] | GI50 [4] | GI50 [5] | GI50 [6] | GI50 [7] | GI50 [8] | GI50 [9] | GI50 [10] | GI50 [11] | GI50 [12] | GI50 [13] | GI50 [14] | GI50 [15] | GI50 [16]
CCc1ccc2oc(-c3cc(O)c(-c4nc5cc(CC)ccc5o4)cc3O)nc2c1 | > 100 µM (inactive) | > 100 µM (inactive) | > 100 µM (inactive) | > 100 µM | > 100 µM (inactive) | > 100 µM (inactive) | > 100 µM (inactive) | > 100 µM (inactive) | > 100 µM (inactive) | > 100 µM (inactive) | > 100 µM (inactive) | > 100 µM (inactive) | > 100 µM (inactive) | > 100 µM (inactive) | > 100 µM (inactive) | –
CCOC(=O)C(NC(=O)c1cccc(Cl)c1)(Nc1cccc(C)c1)C(F)(F)F (configuration not stated) | 38.5 µM (inactive) | 18.7 µM (inactive) | 21.2 µM (inactive) | 16.7 µM | 17.4 µM (inactive) | 15.9 µM (inactive) | 12.8 µM (inactive) | 20.4 µM (inactive) | 32 µM (inactive) | 20.1 µM (inactive) | 16.7 µM (inactive) | 15.1 µM (inactive) | 21.2 µM (inactive) | 15.3 µM (inactive) | – | –
COc1ccccc1/C=C(/C)[N+](=O)[O-] | 1.88 µM (inactive) and 1.21 µM (inactive) | 3.21 µM (inactive) and 4.49 µM (inactive) | 2.24 µM (inactive) and 1.98 µM (inactive) | 1.96 µM and 2.01 µM | 2.46 µM (inactive) and 2.19 µM (inactive) | 2.17 µM (inactive) and 2.44 µM (inactive) | 2.17 µM (inactive) and 1.6 µM (inactive) | 269 nM (active) and 255 nM (active) | 2.33 µM (inactive) and 2.98 µM (inactive) | 3.05 µM (inactive) and 1.83 µM (inactive) | 1.48 µM (inactive) and 3.94 µM (inactive) | 1.69 µM (inactive) and 1.72 µM (inactive) | 1.79 µM (inactive) and 2.12 µM (inactive) | – | – | 1.32 µM (inactive) and 1.09 µM (active)
Cc1cccc(N2CCN(S(=O)(=O)c3ccc(Cl)cc3)C2=N)c1C | – | – | > 100 µM (inactive) | – | 38.6 µM (inactive) | > 100 µM (inactive) | 25.1 µM (inactive) | 35 µM (inactive) | > 100 µM (inactive) | > 100 µM (inactive) | – | 47.9 µM (inactive) | 93.8 µM (inactive) | > 100 µM (inactive) | > 100 µM (inactive) | –
CC(C)(C)C(=O)Nc1c(C=O)ccc2[nH]cnc12 | – | > 100 µM (inactive) | > 100 µM (inactive) | > 100 µM | > 100 µM (inactive) | > 100 µM (inactive) | > 100 µM (inactive) | 30.5 µM (inactive) | > 100 µM (inactive) | > 100 µM (inactive) | > 100 µM (inactive) | > 100 µM (inactive) | > 100 µM (inactive) | > 100 µM (inactive) | > 100 µM (inactive) | 80.9 µM (inactive)
CN1C(=O)c2ccccc2NC(=O)C12O[C@@H]2c1cccc(O)c1 (some centres not stated) | > 100 µM (inactive) | > 100 µM (inactive) | > 100 µM (inactive) | > 100 µM | > 100 µM (inactive) | > 100 µM (inactive) | > 100 µM (inactive) | > 100 µM (inactive) | > 100 µM (inactive) | > 100 µM (inactive) | > 100 µM (inactive) | > 100 µM (inactive) | > 100 µM (inactive) | > 100 µM (inactive) | – | > 100 µM (inactive)
CCOC(=O)/C=C(/C(=O)OCC)n1cc(C)c(=O)n(Cc2cnnn2CCCCOC(C)=O)c1=O | – | 21.8 µM (inactive) | 45.2 µM (inactive) | 12.6 µM | 25.2 µM (inactive) | 11.2 µM (inactive) | 19 µM (inactive) | 18.2 µM (inactive) | > 100 µM (inactive) | 3.54 µM (inactive) | > 10 µM (inactive) | 18.4 µM (inactive) | 22.8 µM (inactive) | 36.6 µM (inactive) | > 100 µM (inactive) | 16.8 µM (inactive)
COC(=O)[C@H](Cc1c[nH]c2ccccc12)NP(=O)(O)OC[C@H]1O[C@@H](n2cc(C)c(=O)[nH]c2=O)C[C@@H]1N=[N+]=[N-] | > 100 µM (inactive) | > 100 µM (inactive) | > 100 µM (inactive) | > 100 µM | – | – | > 100 µM (inactive) | > 100 µM (inactive) | > 100 µM (inactive) | > 100 µM (inactive) | > 100 µM (inactive) | > 100 µM (inactive) | > 100 µM (inactive) | > 100 µM (inactive) | > 100 µM (inactive) | > 100 µM (inactive)
CC(=O)O[C@H]1C(=O)[C@@]2(C)C(C(OC(=O)c3ccccc3)[C@]3(O)CC(OC(=O)C(O)C(NC(=O)c4cccc(Cl)c4)c4ccccc4)C(C)=C1C3(C)C)[C@]1(OC(C)=O)CO[C@@H]1C[C@@H]2O (some centres not stated) | 0.148 µM (active) | > 10 µM (inactive) | 0.628 µM (active) | 2.62 µM | – | 1.82 µM (inactive) | 0.624 µM (active) | 1.01 µM (active) | 0.693 µM (active) | 0.385 µM (active) | 0.0664 µM (active) | – | 0.653 µM (active) | 0.268 µM (active) | 3.67 µM (inactive) | 0.449 µM (active)
CN(C)c1ccc(/C=C/c2nc3ccccc3s2)cc1 | 6.08 µM (inactive) | > 100 µM (inactive) | > 100 µM (inactive) | > 100 µM | > 100 µM (inactive) | > 100 µM (inactive) | > 100 µM (inactive) | > 100 µM (inactive) | > 100 µM (inactive) | > 100 µM (inactive) | > 100 µM (inactive) | 8.53 µM (inactive) | > 100 µM (inactive) | > 100 µM (inactive) | > 100 µM (inactive) | –

Source: ChEMBL document CHEMBL1201862, “PubChem BioAssay data set” (2004)
